Data taken from patent US20050095278A1, “Use of nitroglycerin to relieve nocturnal muscle cramps” (priority 2003, published 2005).

Test system: patients with nocturnal leg muscle cramps
Experiment: Topically applied nitroglycerin (transdermal patch) in ten patients with nocturnal leg muscle cramps
Assay type: in vivo, human
Text: The following Examples show the successful use of topically applied nitroglycerin in treating ten patients with nocturnal leg muscle cramps.

O=[N+]([O-])OCC(CO[N+](=O)[O-])O[N+](=O)[O-] [nitroglycerin]
relief in the frequency and severity of nocturnal muscle cramping (summary of the ten patients) (small amounts of nitroglycerin, even once daily): moderate to significant relief | relieving pain and cramping associated with nocturnal muscle cramps (observation) (topically applied by a transdermal patch to the lower extremity): effective in relieving pain and cramping | relief of pain and cramping associated with muscle cramps (early studies) (transdermal delivery at a rate of about 0.1 mg/hr): sufficient for relief of pain and cramping
